Measurements as given in EP4692071A1, “PHOTOCHROMIC COMPOUND, NAPHTHOL DERIVATIVE, CURABLE COMPOSITION, OPTICAL ARTICLE, LENS, AND EYEGLASS” (TOKUYAMA CORPORATION, priority 2023, dated 2024).

Legend:
Type in all cases: physicochemical
[1] = Maximum absorption wavelength (λmax) after color development, spectrophotometer MCPD3000; conditions: for Maximum absorption wavelength: after color development
Summary of the method: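 Read-out: absorbance at λmax, multichannel photodetector spectrophotometer. Colour density = ε(240) − ε(0), 240 s light, 23°C. τ1/2 = time for ε(240) − ε(0) to halve after light off. Residual rate compares density before and after 90 h xenon weathering.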

[2] = 23°C color optical density (A23): absorbancy difference ε(240)-ε(0) after 240 s light irradiation at 23°C; conditions: 240 s irradiation; for 23°C color optical density (-): comparative compounds
Protocol: (§1) • [1] Maximum Absorption Wavelength (λmax): The maximum absorption wavelength after color development, measured using a spectrophotometer (instantaneous multichannel photodetector MCPD3000) manufactured by Otsuka Electronics Co., Ltd. was used as an indicator for the color tone during the color development. • [2] 23°C Color Optical Density (A23): A difference between an absorbancy measured after light irradiation at 23°C for 240 seconds {ε(240)} and an absorbancy without light irradiation ε(0) at the maximum absorption wavelength was used as an indicator for the color optical density. […] 35°C Color Optical Density (A35): A difference between an absorbancy measured after light irradiation at 35°C for 240 seconds {ε(240)} and an absorbancy without light irradiation ε(0) at the first and second absorption wavelengths was used as an indicator for the color optical density. […] 23°C color fading half-life [τ1/2 (sec.)]: A time required for the absorbancy of the sample at the maximum absorption wavelength to decrease to 1/2 of {ε(240)-ε(0)} when the light irradiation is terminated after the light irradiation at 23°C for 240 seconds, was used as an indicator for the color fading speed. The shorter this time, the higher the color fading speed. • [6] Residual rate (A90/A0×100): The obtained photochromic plastic lens was subjected to accelerated deterioration using a xenon weather meter X25 manufactured by Suga Test Instruments Co., Ltd. for 90 hours. Subsequently, the color optical density was evaluated before and after the test, then a color optical density before the test (A0) and a color optical density after the test (A90) were measured, and a ratio (A90/A0) was defined as a residual rate. The residual rate was used as an indicator for a color developing durability. The higher the residual rate, the higher the color developing durability.

[3] = 35°C color optical density (A35): absorbancy difference ε(240)-ε(0) after 240 s light irradiation at 35°C; conditions: 240 s irradiation; for 35°C color optical density (-): comparative compounds
Protocol: as §1

[4] = High-temperature color development rate (A35/A23×100), temperature dependency; conditions: for Temperature change rate (%): comparative compounds, corresponds to A35/A23×100
Summary of the method: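 Color optical density was taken as the absorbance after 240 seconds of light irradiation, ε(240), minus the absorbance without irradiation, ε(0), at the absorption maximum. It was measured at 23°C (A23) and at 35°C (A35), and the ratio A35/A23×100 served as the high-temperature color development rate, showing temperature dependency.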

[5] = Residual rate (A90/A0×100) after 90 h accelerated deterioration in xenon weather meter X25, color developing durability; conditions: for Residual rate (%): xenon weather meter 90 hours; for Residual rate: after 90 h accelerated deterioration
Summary of the method: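 Photochromic plastic lens samples were irradiated for 240 s at 23°C, and colour density was taken as the absorbance change at the absorption maximum. Fading half-life was timed from the end of irradiation until that absorbance change fell by half. Durability compared colour density before and after xenon-lamp ageing.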

[6] = binder sheet (binder method), urethaneurea resin photochromic layer between polycarbonate sheets, 0.25 mmol per 100 parts by mass resin
[7] = photochromic laminate by coating method, 40 µm photochromic layer on thiourethane lens, 0.25 mmol compound per 100 g monomers
[8] = photochromic laminate by coating method, at the maximum absorption wavelength
[9] = photochromic laminate by coating method
[10] = photochromic laminate by coating method, absorption band at 463 nm
[11] = photochromic laminate by coating method, absorption band at 573 nm
[12] = binder sheet (binder method), absorption peak at 474 nm
[13] = binder sheet (binder method), absorption peak at 566 nm
[14] = photochromic cured product, thickness 1 mm (kneading method), absorption band at 476 nm
[15] = photochromic cured product, thickness 1 mm (kneading method), absorption band at 573 nm
[16] = photochromic laminate prepared by coating method, absorption band at 474 nm
[17] = photochromic laminate prepared by coating method, absorption band at 567 nm
[18] = binder sheet (binder method), at 474 nm absorption maximum
[19] = binder sheet (binder method), at 566 nm absorption maximum
[20] = photochromic laminate by coating method, absorption band at 474 nm
[21] = photochromic laminate by coating method, absorption band at 567 nm
[22] = cured product by kneading method, 1 mm

SMILES: CCCC1(CCC)c2ccccc2-c2c1c1c(c3cc(OC)c(N(c4ccccc4)c4ccc(C)cc4)cc23)OC(c2ccc(OC)cc2)(c2ccc(OC)cc2)C=C1 [Example 13 Formula (68)]
- Maximum absorption wavelength (nm) [1, 6]: 512 nm
- Maximum absorption wavelength (nm) [1, 7]: 512 nm
- A23 (-) ([2]; binder sheet (binder method)): 1.6
- A23 (-) [2, 8]: 1.57 -
- A35 (-) ([3]; binder sheet (binder method)): 1.09 -
- A35 (-) [3, 9]: 1.08 -
- A35/A23 *100 (%) ([4]; binder sheet (binder method)): 68%
- A35/A23 *100 (%) [4, 9]: 69%
- Residual rate (%) ([5]; binder sheet (binder method)): 96%
- Residual rate (%) [5, 9]: 83%

SMILES: CCCOc1ccc(C2(c3ccc(OCCC)cc3)C=Cc3c4c(c5cc(N(CCOC)c6ccccc6)c(OC)cc5c3O2)-c2ccccc2C42CCCCCCC2)cc1 [Example 6 Formula (47)]
- Maximum absorption wavelength (nm) [1, 6]: 499 nm
- Maximum absorption wavelength (nm) [1, 7]: 499 nm
- A23 (-) ([2]; binder sheet (binder method)): 1.37 -
- A23 (-) [2, 8]: 1.34 -
- A35 (-) ([3]; binder sheet (binder method)): 0.97 -
- A35 (-) [3, 9]: 0.95 -
- A35/A23 *100 (%) ([4]; binder sheet (binder method)): 71%
- A35/A23 *100 (%) [4, 9]: 71%
- Residual rate (%) ([5]; binder sheet (binder method)): 94%
- Residual rate (%) [5, 9]: 80%

SMILES: CCCCOc1ccc(C2(c3ccc(OCCCC)cc3)C=Cc3c4c(c5cc(NC(=O)c6ccccc6)c(OC)cc5c3O2)-c2ccccc2C4(C)C)cc1 [Formula (B), reference compound]
- Maximum absorption wavelength (nm) ([1]; photochromic laminate by coating method, 40 µm photochromic layer on thiourethane lens, 0.25 mmol compound per 100 g monomers, absorption band at 463 nm): 463 nm
- Maximum absorption wavelength (nm) ([1]; photochromic laminate by coating method, 40 µm photochromic layer on thiourethane lens, 0.25 mmol compound per 100 g monomers, absorption band at 573 nm): 573 nm
- 23°C color optical density (-) [2, 10]: 1.30 -
- 23°C color optical density (-) [2, 11]: 0.90 -
- 35°C color optical density (-) [3, 10]: 0.88 -
- 35°C color optical density (-) [3, 11]: 0.62 -
- Temperature change rate (%) [4, 9]: 68%
- Residual rate (%) [5, 9]: 68%

SMILES: CCCCOc1ccc(C2(c3ccc(OC)cc3)C=Cc3c4c(c5cc(N(C)c6ccccc6)c(OC)cc5c3O2)-c2ccc(-c3ccc(C(C)(C)C)cc3)cc2C4(CC)CC)cc1 (centres unmarked) [Example 45 Formula (94)]
- Maximum absorption wavelength (nm) [1, 6]: 506 nm
- Maximum absorption wavelength (nm) [1, 7]: 506 nm
- A23 (-) ([2]; binder sheet (binder method)): 1.24 -
- A23 (-) [2, 8]: 1.21 -
- A35 (-) ([3]; binder sheet (binder method)): 0.88 -
- A35 (-) [3, 9]: 0.86 -
- A35/A23 *100 (%) ([4]; binder sheet (binder method)): 71%
- A35/A23 *100 (%) [4, 9]: 71%
- Residual rate (%) ([5]; binder sheet (binder method)): 92%
- Residual rate (%) [5, 9]: 80%

SMILES: COc1ccc(C2(c3ccc(OC)cc3)C=Cc3c4c(c5cc(N6CCOCC6)c(OC)cc5c3O2)-c2ccccc2C4(C)C)cc1 [Formula (A), reference compound]
- Maximum absorption wavelength (nm) ([1]; binder sheet (binder method), urethaneurea resin photochromic layer between polycarbonate sheets, 0.25 mmol per 100 parts by mass resin, at 474 nm absorption maximum): 474 nm
- Maximum absorption wavelength (nm) ([1]; binder sheet (binder method), urethaneurea resin photochromic layer between polycarbonate sheets, 0.25 mmol per 100 parts by mass resin, at 566 nm absorption maximum): 566 nm
- Maximum absorption wavelength [1, 12]: 474 nm
- Maximum absorption wavelength [1, 13]: 566 nm
- Maximum absorption wavelength (nm) ([1]; photochromic cured product by kneading method, 1 mm thick thiourethane, 0.106 mmol per 100 g monomers, absorption peak at 476 nm): 476 nm
- Maximum absorption wavelength (nm) ([1]; photochromic cured product by kneading method, 1 mm thick thiourethane, 0.106 mmol per 100 g monomers, absorption peak at 573 nm): 573 nm
- Maximum absorption wavelength [1, 14]: 476 nm
- Maximum absorption wavelength [1, 15]: 573 nm
- Maximum absorption wavelength (nm) ([1]; photochromic laminate by coating method, 40 µm photochromic layer on thiourethane lens, 0.25 mmol compound per 100 g monomers, absorption band at 474 nm): 474 nm
- Maximum absorption wavelength (nm) ([1]; photochromic laminate by coating method, 40 µm photochromic layer on thiourethane lens, 0.25 mmol compound per 100 g monomers, absorption band at 567 nm): 567 nm
- Maximum absorption wavelength [1, 16]: 474 nm
- Maximum absorption wavelength [1, 17]: 567 nm
- A23 (-) [2, 18]: 1.69 -
- A23 (-) [2, 19]: 0.85 -
- 23°C color optical density (-) [2, 20]: 1.65 -
- 23°C color optical density (-) [2, 21]: 0.83 -
- 35°C color optical density (-) [3, 20]: 1.14 -
- 35°C color optical density (-) [3, 21]: 0.57 -
- A35/A23 *100 [4, 12]: 69%
- A35/A23 *100 [4, 13]: 68%
- A35/A23 *100 (%) [4, 18]: 69%
- A35/A23 *100 (%) [4, 19]: 68%
- A35/A23 *100 (%) [4, 22]: 70%
- A35/A23 *100 ([4]; photochromic cured product, thickness 1 mm (kneading method)): 70%
- Temperature change rate (%) [4, 9]: 69%
- A35/A23 *100 ([4]; photochromic laminate prepared by coating method): 69%
- Residual rate [5, 12]: 70%
- Residual rate [5, 13]: 76%
- Residual rate (%) [5, 18]: 70%
- Residual rate (%) [5, 19]: 76%
- Residual rate (%) ([5]; cured product by kneading method, 1 mm, absorption peak at 476 nm): 60%
- Residual rate (%) ([5]; cured product by kneading method, 1 mm, absorption peak at 573 nm): 65%
- Residual rate [5, 14]: 60%
- Residual rate [5, 15]: 65%
- Residual rate (%) [5, 20]: 53%
- Residual rate (%) [5, 21]: 57%
- Residual rate [5, 16]: 53%
- Residual rate [5, 17]: 57%

SMILES: CCCCCCOc1ccc(C2(c3ccc(OC)cc3)C=Cc3c4c(c5cc(N(c6ccc(C)cc6)c6ccc(OC)cc6)c(OC)cc5c3O2)-c2ccccc2C42CC(C)(C)CC(C)(C)C2)cc1 (centres unmarked) [Example 15 Formula (75)]
- Maximum absorption wavelength (nm) ([1]; photochromic cured product by kneading method, 1 mm thick thiourethane, 0.106 mmol per 100 g monomers): 527 nm
- Maximum absorption wavelength (nm) [1, 7]: 523 nm
- A23 (-) [2, 22]: 1.22 -
- A23 (-) [2, 8]: 1.20 -
- A35 (-) [3, 22]: 0.76 -
- A35 (-) [3, 9]: 0.74 -
- A35/A23 *100 (%) [4, 22]: 63%
- A35/A23 *100 (%) [4, 9]: 62%
- Residual rate (%) [5, 22]: 81%
- Residual rate (%) [5, 9]: 75%
